From article PMC6471218, “Anti-Diabetic Activity of 2,3,6-Tribromo-4,5-Dihydroxybenzyl Derivatives from Symphyocladia latiuscula through PTP1B Downregulation and α-Glucosidase Inhibition” (Marine Drugs, 2019)
Where two headings read alike, the source gives them in different places.

Assays:
[1] = test system: insulin-resistant HepG2 cells; assay: 2-NBDG glucose uptake assay in insulin-resistant HepG2 cells; assay type: cell-based, human; details: 24 h; for Insulin-stimulated glucose uptake compared with rosiglitazone 10 µM (112%): 20 µM
Procedure: Figure 8 Effect of bromophenols 1–3 on insulin-stimulated glucose uptake in insulin-resistant HepG2 cells. The glucose uptake assay was performed using the fluorescent D-glucose analogue 2-NBDG and 10^−6 mol/L insulin was to induce insulin resistance. Insulin-resistant HepG2 cells were treated with the indicated concentrations of test compounds or rosiglitazone for 24 h, and insulin-stimulated 2-NBDG uptake was measured. Values represent the mean ± standard deviation of triplicate experiments. ^a p < 0.01 indicates significant differences from the control group; ^b p < 0.05, ^c p < 0.01, and ^d p < 0.001 indicate significant differences from the insulin-resistant group.
(§1) HepG2 (human hepatocarcinoma) cells obtained from the American Type Culture Collection (HB-8065; Manassas, VA, USA) were maintained in 10% FBS MEM at 37 °C in a humidified atmosphere with 5% CO2. Cytotoxicity was evaluated using the MTT assay. Following previously described methods, an insulin-resistant HepG2 cell model was established. All other experimental conditions and procedures were similar to those reported in our previous paper.
The relative percent glucose uptake upon sample treatment in IR-HepG2 cells was evaluated by a flourimetric method using the fluorescent D-glucose analog 2-NBDG and measured on a fluorescence microplate reader (FL×800, Bio-Tek Instruments, Inc., Winooski, VT, USA) at 485 nm excitation and 528 nm emission wavelengths. Detailed experimental conditions and procedures are reported in our previous publication.

yeast α-glucosidase [2] = molecular target: T1, yeast α-glucosidase (Saccharomyces cerevisiae, UniProt P53341); assay: biochemical; assay type: biochemical; details: for Enhancement of α-glucosidase inhibitory activity compared to 2: ratio of IC50 values
T1 construct: purchased Sigma-Aldrich Co. (St. Louis, MO, USA)
From the text: (§2) The initial step in evaluating anti-diabetic secondary metabolites from Symphyocladia latiuscula was the evaluation of PTP1B and α-glucosidase inhibition potentials of methanol extract and fractions obtained by MeOH extract partition with different solvents using pNPP and pNPG as substrates, respectively. Enzyme inhibition levels are expressed as mean IC50 values with standard deviation.
(§3) Human recombinant protein tyrosine phosphatase (PTP1B) was purchased from Biomol International LP (Plymouth Meeting, PA, USA). Fetal bovine serum (FBS), minimum essential medium (MEM), sodium pyruvate, penicillin-streptomycin, and nonessential amino acids were purchased from Gibco-BRL Life Technologies (Grand Island, NY, USA). The fluorescent D-glucose analogue and 2-NBDG was purchased from Life Technologies (Carlsbad, CA, USA). Human insulin was purchased from Eli Lilly (Fegersheim, France). All other chemicals and solvents used were of reagent grade and acquired from commercial sources.
The α-glucosidase inhibition assay procedure, previously reported by Li et al., was followed to measure the release of […] at 405 nm using a microplate spectrophotometer (Molecular Devices).

HepG2 cells = assay: MTT cytotoxicity assay in HepG2 cells; assay type: cell-based, human; details: 25, 50 and 100 μM, 24 h
Procedure: Cytotoxicity of bromophenols on HepG2 cells was evaluated using a 3-(4,5-dimethylthiazol-2-yl)-2,5-diphenyl tetrazolium bromide (MTT) assay. […] So, considering enzyme inhibition activity and toxicity in HepG2 cells, we performed cell-based experiments at 5, 10, and 20 µM concentrations.
Figure 7 Effect of bromophenols 1–3 on cell viability in HepG2 cells. Cell viability was determined using the 3-(4,5-dimethylthiazol-2-yl)-2,5-diphenyl tetrazolium bromide (MTT) method. Cells were pretreated with the indicated concentrations (25, 50, and 100 μM) of test compounds for 24 h. Data shown represent mean ± standard deviation of triplicate experiments. ^a p < 0.05 indicates significant differences from the control group.
as §1

α-glucosidase = molecular target: α-glucosidase; set-up: method as in ref 24, 34 (Kurihara et al.); details: different enzyme and pNPG concentrations; 34 (Kurihara et al.); read-out: 50% α-glucosidase enzyme inhibition concentration (literature); cited from earlier work
[3] = molecular target: T2, Human recombinant protein tyrosine phosphatase (PTP1B) (Homo sapiens, UniProt P18031); assay: Kinetic study against PTP1B (Lineweaver–Burk and Dixon plots); assay type: biochemical; details: for PTP1B Inhibition Type: determined from Lineweaver–Burk plots
T2 sequence (P18031 1-435): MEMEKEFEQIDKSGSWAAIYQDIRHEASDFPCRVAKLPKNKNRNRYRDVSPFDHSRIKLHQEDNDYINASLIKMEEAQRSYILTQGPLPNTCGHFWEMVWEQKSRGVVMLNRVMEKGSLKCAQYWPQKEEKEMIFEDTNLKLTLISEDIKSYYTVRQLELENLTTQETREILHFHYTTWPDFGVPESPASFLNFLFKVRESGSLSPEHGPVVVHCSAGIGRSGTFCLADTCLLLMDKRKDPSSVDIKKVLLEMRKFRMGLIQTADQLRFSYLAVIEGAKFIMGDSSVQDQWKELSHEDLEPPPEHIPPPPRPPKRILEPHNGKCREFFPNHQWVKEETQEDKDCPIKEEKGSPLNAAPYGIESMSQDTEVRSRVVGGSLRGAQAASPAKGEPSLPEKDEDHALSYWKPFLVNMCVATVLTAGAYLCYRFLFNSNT
Procedure: (§4) In competitive inhibition mode (Figure 2C), double reciprocal plots yielded a group of lines with the same y-intercept (constant Vmax) but different x-intercepts (varying Km values). […] The double reciprocal plots of α-glucosidase enzyme inhibition by 3 yielded a group of lines intersecting at a single point in the second quadrant.
(§5) The modes of enzyme inhibition were evaluated by monitoring the effects of different concentrations of the substrates (1, 2, or 4 mM pNPP for PTP1B and 1.25, 2.5, or 5 mM pNPG for α-glucosidase) on Dixon plots (single reciprocal plots). […] The enzymatic procedure consisted of the same aforementioned assay method. The inhibition constants (Ki) were determined by interpreting Dixon plots, where the value of the x-intercept indicated the value of −Ki.

[4] = molecular target: T2, Human recombinant protein tyrosine phosphatase (PTP1B); assay: PTP1B inhibitory assay with pNPP substrate; assay type: biochemical
From the text: as §2, §3
The potential for MeOH extract, solvent-soluble fractions, and isolated compounds to inhibit PTP1B enzyme activity was evaluated using the pNPP substrate. Experimental conditions and laboratory procedures were similar to those published in our previous report.

yeast α-glucosidase [5] = molecular target: T1, yeast α-glucosidase; assay: Kinetic study against α-glucosidase (Lineweaver–Burk and Dixon plots); assay type: biochemical; details: for α-Glucosidase Inhibition Type: determined from Lineweaver–Burk plots
Procedure: as §4, §5

PTP1B = test system: PTP1B; set-up: method as in ref 35 (Liu et al.); details: ref 35 (Liu et al.); read-out: PTP1B IC50 (literature); cited from earlier work
[6] = test system: PTP1B expression in insulin-resistant HepG2 cells; assay: PTP1B expression level in insulin-resistant HepG2 cells (western blot); assay type: cell-based, human; details: 24 h treatment, then 100 nM insulin 30 min
Procedure: Figure 9 Effects of bromophenol 1 (A), 2 (B), and 3 (C) on protein tyrosine phosphatase 1B (PTP1B) expression levels in insulin-resistant HepG2 cells. Western blotting was performed and protein band intensities were quantified by densitometric analysis. Upper panels display representative blots. Equal protein loading was ensured and normalized against β-actin levels. Values represent the mean ± standard deviation of three independent experiments; ^a p < 0.001 indicates significant differences from the control group; ^b p < 0.05, ^c p < 0.01, and ^d p < 0.001 indicate significant differences from the insulin-resistant group.
Insulin-resistant HepG2 cells were exposed to a range of concentrations of 1–3 or rosiglitazone (10 μM) in 24-well plates for 24 h followed by stimulation with 100 nM insulin diluted in SFMEM for 30 min. Cells were then washed twice with ice cold PBS, collected, and lysed with sample buffer. Protein was quantified by the modified Bradford protein assay kit using bovine serum albumin (BSA) as a standard, electrophoresed on sodium dodecyl sulfate-polyacrylamide gels (Bio-Rad, Hercules, CA, USA), and then transferred to polyvinylidene difluoride (PVDF) membranes (Immobilon-P; Millipore, Burlington, MA, USA) using the Pierce G2 Fast Blotter (Thermo Fisher Scientific Inc, USA) at 100 V for 60 min in a standard semi-dry system. […]

T1 sequence (P53341 whole entry): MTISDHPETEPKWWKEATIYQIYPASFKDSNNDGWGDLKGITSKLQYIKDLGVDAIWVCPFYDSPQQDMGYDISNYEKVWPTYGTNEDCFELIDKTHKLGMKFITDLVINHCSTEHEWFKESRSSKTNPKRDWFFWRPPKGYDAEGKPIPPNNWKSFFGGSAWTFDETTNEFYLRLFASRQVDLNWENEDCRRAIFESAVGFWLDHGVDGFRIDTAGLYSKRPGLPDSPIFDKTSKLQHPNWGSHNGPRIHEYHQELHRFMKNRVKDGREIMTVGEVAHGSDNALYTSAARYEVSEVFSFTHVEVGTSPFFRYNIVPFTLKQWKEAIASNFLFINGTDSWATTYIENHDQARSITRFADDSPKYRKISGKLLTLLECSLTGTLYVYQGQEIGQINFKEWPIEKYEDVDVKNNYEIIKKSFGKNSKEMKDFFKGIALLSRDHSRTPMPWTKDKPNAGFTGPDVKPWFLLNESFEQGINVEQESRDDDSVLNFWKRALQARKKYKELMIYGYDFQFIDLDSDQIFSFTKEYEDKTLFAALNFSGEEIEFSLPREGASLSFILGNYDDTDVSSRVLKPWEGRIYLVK

| Compound | Insulin-stimulated glucose uptake (2-NBDG) ([1]; 10 µM, relative to normal control) | IC50 (yeast α-glucosidase [2]) | Enhancement of α-glucosidase inhibitory activity compared to 2 (yeast α-glucosidase [2]) | Cytotoxicity (cell viability, MTT) in HepG2 cells (HepG2 cells) | IC50 (α-glucosidase) | Ki [3] | PTP1B Inhibition Type [3] | IC50 [4] | Ki (yeast α-glucosidase [5]) | α-Glucosidase Inhibition Type (yeast α-glucosidase [5]) | Insulin-stimulated glucose uptake compared with rosiglitazone 10 µM (112%) [1] | IC50 (PTP1B) | IC50 (yeast α-glucosidase [2]; mean ± SD, n = 3, read-out: α-Glucosidase IC50) | Ki ([3]; determined from Dixon plots, read-out: PTP1B Ki) | IC50 ([4]; mean ± SD, n = 3, read-out: PTP1B IC50) | Effect on PTP1B expression level [6] | Ki (yeast α-glucosidase [5]; determined from Dixon plots, read-out: α-Glucosidase Ki) | Insulin-stimulated glucose uptake compared with rosiglitazone 10 µM ([1]; 10 µM) |
| --- | --- | --- | --- | --- | --- | --- | --- | --- | --- | --- | --- | --- | --- | --- | --- | --- | --- | --- |
| CN(CCOc1ccc(CC2SC(=O)NC2=O)cc1)c1ccccn1 (stereo not drawn) [Rosiglitazone, rosiglitazone, reference compound] | 112% |  |  |  |  |  |  |  |  |  |  |  |  |  |  |  |  |  |
| OCc1c(Br)c(O)c(O)c(Br)c1Br [Compound 1, 2,3,6-Tribromo-4,5-dihydroxybenzyl alcohol] |  | 2.63 ± 0.11 µM | 2.5 fold | slightly toxic effect at 100 μM | 11 µM | 1.19 µM | Mixed-type | 7.74 ± 0.14 µM | 1.92 µM | Noncompetitive | comparable |  |  |  |  |  |  |  |
| COCc1c(Br)c(O)c(O)c(Br)c1Br [Compound 2, 2,3,6-Tribromo-4,5-dihydroxybenzyl methyl ether] |  | 7.24 ± 0.02 µM |  | did not show toxicity until they were used at a concentration of 100 μM |  | 2.4 µM | Mixed-type | 8.5 ± 0.45 µM | 5.54 µM | Noncompetitive | comparable | 3.9 µM |  |  |  |  |  |  |
| Oc1c(O)c(Br)c(COCc2c(Br)c(O)c(O)c(Br)c2Br)c(Br)c1Br [Compound 3, Bis-(2,3,6-tribromo-4,5-dihydroxybenzylmethyl ether)] |  |  | 3.8 fold |  | 0.03 µM |  | Competitive |  |  | Mixed-type |  |  | 1.92 ± 0.02 µM | 2.25 µM | 5.29 ± 0.08 µM | excellent ability to reduce PTP1B expression level | 0.21 µM | greater effect than rosiglitazone |
